Measurements published in paper PMC7899671 (eLife, 2021).
pKd: −log10 of the molar value.

Experiments:
[1] = target: T1, α1V279Aβ2γ2L (V279A) receptors (Rattus norvegicus, UniProt P18508+P62813+P63138, INS375LLRMFSFK/V306A); assay: Two-electrode voltage clamp of receptors expressed in Xenopus laevis oocytes (V279A); assay type: cell-based
T1 construct: expressed in transfected cells; host or cells: Xenopus laevis oocytes injected with mRNA (α:β:γ 1:1:10)
Description: (§1) DNA for wild-type GABAAR rat α1, β2, and γ2L subunits were a gift from Dr. Cynthia Czajkowski. Single alanine substitutions were introduced throughout the α1M2–M3 linker from L276-T283 in addition to the gain of function α1L9'T pore mutation (rat α1L263T) (QuikChange II, […]). Mutations V279D and V279W were introduced similarly. Each construct was verified by forward and reverse sequencing of the entire gene. mRNA for each construct was generated (mMessage mMachine T7, Ambion) for expression in X. laevis oocytes (EcoCyte Bioscience, Austin, TX). Oocytes were injected with 27–54 ng of total mRNA for α, β, and γ subunits in a 1:1:10 ratio ([Boileau et al., 2002]) (Nanoject, Drummond Scientific). Oocytes were incubated in ND96 (in mM: 96 NaCl, 2 KCl, 1 MgCl2, 1.8 CaCl2, 5 HEPES, pH 7.2) with […] gentamicin at 18°C.
(§2) Currents from expressed channels 1–3 days post-injection were recorded in two-electrode voltage clamp (Dagan TEV-200, HEKA ITC and Patchmaster software). […] PTX was diluted from a 1 M stock solution in DMSO. […] Recorded currents were analyzed with custom scripts in MATLAB (Mathworks). Recordings of concentration–response relationships were bookended by pulses of PTX to correct for any drift or rundown during the experiment. Briefly, currents were baseline subtracted to correct for drift and then scaled by a linear fit to the peak of each PTX response to correct for rundown (Figure 2—figure supplement 1).
(§3) where I is the peak current response, X is ligand concentration, EC50 is the concentration eliciting a half-maximal response, and n is the Hill slope.

[2] = target: T2, α1β2γ2L (wild-type) GABAA receptors (Rattus norvegicus, UniProt P18508+P62813+P63138, INS375LLRMFSFK); assay: Two-electrode voltage clamp of receptors expressed in Xenopus laevis oocytes (wild-type); assay type: cell-based; conditions: WT; 10 μM GABA + 1 μM FG-7142
T2 construct: expressed in transfected cells; host or cells: Xenopus laevis oocytes injected with mRNA (α:β:γ 1:1:10)
T2 sequence (P62813 28-455, stated change not applied): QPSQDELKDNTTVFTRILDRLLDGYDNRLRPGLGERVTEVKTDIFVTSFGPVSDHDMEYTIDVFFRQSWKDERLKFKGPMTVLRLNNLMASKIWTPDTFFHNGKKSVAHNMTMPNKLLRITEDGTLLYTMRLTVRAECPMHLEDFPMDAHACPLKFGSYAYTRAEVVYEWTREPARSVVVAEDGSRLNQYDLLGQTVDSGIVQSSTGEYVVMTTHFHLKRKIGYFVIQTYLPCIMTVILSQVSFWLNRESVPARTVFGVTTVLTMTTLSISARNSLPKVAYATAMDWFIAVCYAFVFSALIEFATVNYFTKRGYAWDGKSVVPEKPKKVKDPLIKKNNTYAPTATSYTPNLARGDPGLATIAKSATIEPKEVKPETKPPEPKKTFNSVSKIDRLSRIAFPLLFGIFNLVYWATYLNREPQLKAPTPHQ
T2 sequence (P63138 25-474 limits assumed, stated change not applied): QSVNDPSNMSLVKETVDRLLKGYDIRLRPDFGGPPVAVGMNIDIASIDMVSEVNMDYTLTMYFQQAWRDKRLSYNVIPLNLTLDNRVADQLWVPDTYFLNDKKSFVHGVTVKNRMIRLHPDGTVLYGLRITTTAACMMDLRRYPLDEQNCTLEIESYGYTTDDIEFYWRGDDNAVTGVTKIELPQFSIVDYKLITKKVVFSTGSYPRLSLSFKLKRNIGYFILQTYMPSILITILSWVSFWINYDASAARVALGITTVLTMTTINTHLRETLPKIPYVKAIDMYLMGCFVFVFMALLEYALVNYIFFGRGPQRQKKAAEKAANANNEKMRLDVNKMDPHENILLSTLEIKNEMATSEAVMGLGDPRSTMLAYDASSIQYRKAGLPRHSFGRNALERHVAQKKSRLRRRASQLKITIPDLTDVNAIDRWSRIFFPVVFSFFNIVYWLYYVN
T2 sequence (P18508 with tags, fused parts or gaps INS375LLRMFSFK): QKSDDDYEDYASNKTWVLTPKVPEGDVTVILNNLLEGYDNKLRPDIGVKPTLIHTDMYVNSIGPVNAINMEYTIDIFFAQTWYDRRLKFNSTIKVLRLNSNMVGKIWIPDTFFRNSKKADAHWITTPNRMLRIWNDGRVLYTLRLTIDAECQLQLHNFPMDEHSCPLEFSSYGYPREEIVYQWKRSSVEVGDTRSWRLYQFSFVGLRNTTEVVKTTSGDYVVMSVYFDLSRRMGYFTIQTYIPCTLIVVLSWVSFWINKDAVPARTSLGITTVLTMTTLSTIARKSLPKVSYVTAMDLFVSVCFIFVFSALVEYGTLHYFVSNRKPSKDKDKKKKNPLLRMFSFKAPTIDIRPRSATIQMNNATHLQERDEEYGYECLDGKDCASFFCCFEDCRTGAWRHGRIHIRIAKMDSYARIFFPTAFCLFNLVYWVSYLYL
Description: as §1
as §2, with “Briefly, currents were baseline subtracted to correct for drift and then scaled by a linear fit to the peak of each PTX response to correct for rundown (Figure 2—figure supplement 1).” left out

[3] = target: α1L9'Tβ2γ2L, α1L9'T/V279Aβ2γ2L, and α1β2γ2L receptors; assay: MWC model of channel gating, global fit to estimated open probability; conditions: MWC model parameter, global optimisation
[4] = target: T3, α1L9'Tβ2γ2L GABAA receptor (L9'T) (Rattus norvegicus, UniProt P18508+P62813+P63138, INS375LLRMFSFK/L290T); assay type: cell-based
T3 construct: expressed in transfected cells; host or cells: Xenopus laevis oocytes injected with mRNA (α:β:γ 1:1:10)
T3 sequence (P62813 28-455 L290T): as the sequence (P62813 28-455, stated change not applied) above, with L263T counted along it
T3 sequence (P63138 25-474 limits assumed, stated change not applied): as the sequence (P63138 25-474 limits assumed, stated change not applied) above
T3 sequence (P18508 with tags, fused parts or gaps INS375LLRMFSFK): as the sequence (P18508 with tags, fused parts or gaps INS375LLRMFSFK) above
Description: (§4) We use the gain of function mutation α1L9'T that confers spontaneous channel gating in the absence of agonist that can be further modulated by BZDs ([Scheller and Forman, 2002]; [Chang and Weiss, 1999]). The primary purpose for this mutation is to enable macroscopic current responses to report on pore gating by a BZD in the absence of agonist. […] We restricted the scan primarily to the flexible loop between helical regions associated with M2 and M3 from α1L276-T283 (Figure 1; Figure 1—figure supplement 1). Two of these positions, α1A280 and α1A282, are natively alanine and were not mutated. Briefly, Xenopus laevis oocytes were co-injected with mRNA for α, β, and γ subunits in a 1:1:10 ratio, and current responses to microfluidic application of ligands were recorded in two-electrode voltage clamp. […] Current block by the pore blocker PTX was used to assess the amount of spontaneous activity and to correct for drift or rundown over the course of the experiment (see Figure 2—figure supplement 1).
(§5) BZD positive modulators alone evoke channel opening with extremely low probability ([Campo-Soria et al., 2006]), thus necessitating coapplication with an agonist to obtain robust currents from wild-type receptors ([Germann et al., 2019]). However, dissecting the effects of BZDs on either agonist binding or channel gating is severely challenged in the presence of an agonist because the two processes are intimately coupled ([Colquhoun, 1998]).
as §1, §2

[5] = target: T4, α1L9'T/Y281Aβ2γ2L GABAA receptor (L9'T/Y281A) (Rattus norvegicus, UniProt P18508+P62813+P63138, INS375LLRMFSFK/L290T/Y308A); assay type: cell-based
T4 construct: expressed in transfected cells; host or cells: Xenopus laevis oocytes injected with mRNA (α:β:γ 1:1:10)
T4 sequence (P62813 28-455 L290T/Y308A): as the sequence (P62813 28-455, stated change not applied) above, with L263T, Y281A counted along it
T4 sequence (P63138 25-474 limits assumed, stated change not applied): as the sequence (P63138 25-474 limits assumed, stated change not applied) above
T4 sequence (P18508 with tags, fused parts or gaps INS375LLRMFSFK): as the sequence (P18508 with tags, fused parts or gaps INS375LLRMFSFK) above
Description: as §4, §5, §1, §2

[6] = target: T5, α1L9'T/P277Aβ2γ2L GABAA receptor (L9'T/P277A) (Rattus norvegicus, UniProt P18508+P62813+P63138, INS375LLRMFSFK/L290T/P304A); assay type: cell-based
T5 construct: expressed in transfected cells; host or cells: Xenopus laevis oocytes injected with mRNA (α:β:γ 1:1:10)
T5 sequence (P62813 28-455 L290T/P304A): as the sequence (P62813 28-455, stated change not applied) above, with L263T, P277A counted along it
T5 sequence (P63138 25-474 limits assumed, stated change not applied): as the sequence (P63138 25-474 limits assumed, stated change not applied) above
T5 sequence (P18508 with tags, fused parts or gaps INS375LLRMFSFK): as the sequence (P18508 with tags, fused parts or gaps INS375LLRMFSFK) above
Description: as §4, §5, §1, §2

[7] = target: T6, α1L9'T/T283Aβ2γ2L GABAA receptor (L9'T/T283A) (Rattus norvegicus, UniProt P18508+P62813+P63138, INS375LLRMFSFK/L290T/T310A); assay type: cell-based
T6 construct: expressed in transfected cells; host or cells: Xenopus laevis oocytes injected with mRNA (α:β:γ 1:1:10)
T6 sequence (P62813 28-455 L290T/T310A): as the sequence (P62813 28-455, stated change not applied) above, with L263T, T283A counted along it
T6 sequence (P63138 25-474 limits assumed, stated change not applied): as the sequence (P63138 25-474 limits assumed, stated change not applied) above
T6 sequence (P18508 with tags, fused parts or gaps INS375LLRMFSFK): as the sequence (P18508 with tags, fused parts or gaps INS375LLRMFSFK) above
Description: as §4, §5, §1, §2

[8] = target: T7, α1L9'T/K278Aβ2γ2L receptors (L9'T/K278A) (Rattus norvegicus, UniProt P18508+P62813+P63138, INS375LLRMFSFK/K305A/L290T); assay type: cell-based
T7 construct: expressed in transfected cells; host or cells: Xenopus laevis oocytes injected with mRNA (α:β:γ 1:1:10)
T7 sequence (P62813 28-455 L290T/K305A): as the sequence (P62813 28-455, stated change not applied) above, with L263T, K278A counted along it
T7 sequence (P63138 25-474 limits assumed, stated change not applied): as the sequence (P63138 25-474 limits assumed, stated change not applied) above
T7 sequence (P18508 with tags, fused parts or gaps INS375LLRMFSFK): as the sequence (P18508 with tags, fused parts or gaps INS375LLRMFSFK) above
Description: as §4, §5, §1, §2

[9] = target: T8, α1L9'T/V279Aβ2γ2L receptors (L9'T/V279A) (Rattus norvegicus, UniProt P18508+P62813+P63138, INS375LLRMFSFK/L290T/V306A); assay type: cell-based
T8 construct: expressed in transfected cells; host or cells: Xenopus laevis oocytes injected with mRNA (α:β:γ 1:1:10)
T8 sequence (P62813 28-455 L290T/V306A): as the sequence (P62813 28-455, stated change not applied) above, with L263T, V279A counted along it
T8 sequence (P63138 25-474 limits assumed, stated change not applied): as the sequence (P63138 25-474 limits assumed, stated change not applied) above
T8 sequence (P18508 with tags, fused parts or gaps INS375LLRMFSFK): as the sequence (P18508 with tags, fused parts or gaps INS375LLRMFSFK) above
Description: as §4, §5, §1, §2

[10] = target: T9, α1L9'T/L276Aβ2γ2L GABAA receptor (L9'T/L276A) (Rattus norvegicus, UniProt P18508+P62813+P63138, INS375LLRMFSFK/L290T/L303A); assay type: cell-based
T9 construct: expressed in transfected cells; host or cells: Xenopus laevis oocytes injected with mRNA (α:β:γ 1:1:10)
T9 sequence (P62813 28-455 L290T/L303A): as the sequence (P62813 28-455, stated change not applied) above, with L263T, L276A counted along it
T9 sequence (P63138 25-474 limits assumed, stated change not applied): as the sequence (P63138 25-474 limits assumed, stated change not applied) above
T9 sequence (P18508 with tags, fused parts or gaps INS375LLRMFSFK): as the sequence (P18508 with tags, fused parts or gaps INS375LLRMFSFK) above
Description: as §4, §5, §1, §2

[11] = target: T10, α1L9'T/V279Wβ2γ2L GABAA receptor (L9'T/V279W) (Rattus norvegicus, UniProt P18508+P62813+P63138, INS375LLRMFSFK/L290T/V306W); assay type: cell-based
T10 construct: expressed in transfected cells; host or cells: Xenopus laevis oocytes injected with mRNA (α:β:γ 1:1:10)
T10 sequence (P62813 28-455 L290T/V306W): as the sequence (P62813 28-455, stated change not applied) above, with L263T, V279W counted along it
T10 sequence (P63138 25-474 limits assumed, stated change not applied): as the sequence (P63138 25-474 limits assumed, stated change not applied) above
T10 sequence (P18508 with tags, fused parts or gaps INS375LLRMFSFK): as the sequence (P18508 with tags, fused parts or gaps INS375LLRMFSFK) above
Description: (§6) The M2–M3 linker has both high sequence and structural similarity in pLGICs. The valine at position 279 in the GABAAR α1 subunit is located near the center of the linker and is nearly always an aliphatic residue in different GABAAR subunits as well as in subunits of other pLGICs, with the exception of AChR, where it is a threonine. Even where sequences differ, structural models of the M2–M3 linker for multiple pLGICs are highly similar.
as §1, §2, §3

[12] = target: T11, α1L9'T/V279Dβ2γ2L GABAA receptor (L9'T/V279D) (Rattus norvegicus, UniProt P18508+P62813+P63138, INS375LLRMFSFK/L290T/V306D); assay type: cell-based
T11 construct: expressed in transfected cells; host or cells: Xenopus laevis oocytes injected with mRNA (α:β:γ 1:1:10)
T11 sequence (P62813 28-455 L290T/V306D): as the sequence (P62813 28-455, stated change not applied) above, with L263T, V279D counted along it
T11 sequence (P63138 25-474 limits assumed, stated change not applied): as the sequence (P63138 25-474 limits assumed, stated change not applied) above
T11 sequence (P18508 with tags, fused parts or gaps INS375LLRMFSFK): as the sequence (P18508 with tags, fused parts or gaps INS375LLRMFSFK) above
Description: as §6, §1, §2, §3

T1 sequence (P62813 28-455 V306A): as the sequence (P62813 28-455, stated change not applied) above, with V279A counted along it
T1 sequence (P63138 25-474 limits assumed, stated change not applied): as the sequence (P63138 25-474 limits assumed, stated change not applied) above
T1 sequence (P18508 with tags, fused parts or gaps INS375LLRMFSFK): as the sequence (P18508 with tags, fused parts or gaps INS375LLRMFSFK) above

Molecule: CNC(=O)c1cc2c(cn1)[nH]c1ccccc12 [FG-7142]
- Effect of FG-7142 on responses to ~EC20-25 GABA ([1]; V279A, 30 μM GABA + 1 μM FG-7142, compared with WT): to a slightly lesser extent in V279A
- Effect of FG-7142 on responses to ~EC20-25 GABA [2]: reduced

Molecule: CN1C(=O)CN=C(c2ccccc2)c2cc(Cl)ccc21 [DZ, diazepam]
- pKd ([3]; read-out: KD (dissociation constant for DZ)): 6.74
- DZ potentiation of GABA-evoked peak current responses ([1]; V279A vs wild-type, 1 μM DZ, EC20-25 (30 μM) or EC100 GABA): to a greater extent in V279A than in wild-type receptors
- DZ potentiation of currents evoked with a saturating concentration of GABA ([1]; V279A, 1 μM DZ, EC100 GABA 3–30 mM): potentiates V279A currents evoked with a saturating concentration of GABA
- DZ hill slope [4]: 1.10
- ΔΔGDZ (DZ's energetic contribution to pore gating, ΔG1 − ΔG0) [4]: −0.31 ± 0.04 (5) kcal/mol
- DZ hill slope [5]: 1.14
- ΔΔGDZ (DZ's energetic contribution to pore gating, ΔG1 − ΔG0) [5]: −0.42 ± 0.07 (4) kcal/mol
- DZ hill slope [6]: 1.24
- ΔΔGDZ (DZ's energetic contribution to pore gating, ΔG1 − ΔG0) [6]: −0.46 ± 0.20 (5) kcal/mol
- DZ hill slope [7]: 1.42
- ΔΔGDZ (DZ's energetic contribution to pore gating, ΔG1 − ΔG0) [7]: −0.38 ± 0.04 (6) kcal/mol
- DZ hill slope [8]: 0.97
- ΔΔGDZ (DZ's energetic contribution to pore gating, ΔG1 − ΔG0) [8]: −0.44 ± 0.08 (4) kcal/mol
- DZ hill slope [9]: 0.98
- dV279A (factor by which DZ binding influences channel opening) [9]: 0.20
- ΔΔGDZ (DZ's energetic contribution to pore gating, ΔG1 − ΔG0) [9]: −1.11 ± 0.30 (5) kcal/mol
- DZ hill slope [10]: 0.61
- ΔΔGDZ (DZ's energetic contribution to pore gating, ΔG1 − ΔG0) [10]: −0.45 ± 0.04 (5) kcal/mol
- DZ hill slope [11]: 0.90
- ΔΔGDZ (DZ's energetic contribution to pore gating, ΔG1 − ΔG0) [11]: −0.53 ± 0.10 (3) kcal/mol
- DZ hill slope [12]: 0.58
- ΔΔGDZ (DZ's energetic contribution to pore gating, ΔG1 − ΔG0) [12]: −0.52 ± 0.02 (3) kcal/mol

Molecule: NCCCC(=O)O [GABA]
- c (factor by which GABA binding influences channel opening) [3]: 0.0031

Molecule: picrotoxin [PTX]
- IPTX /IGABA-max (ratio of PTX-sensitive to maximal GABA-evoked current amplitude) ([4]; L9'T, 1 mM PTX, saturating GABA, mean ± SD (# oocytes)): 0.36 ± 0.04 (5)
- IPTX /IGABA-max (ratio of PTX-sensitive to maximal GABA-evoked current amplitude) ([5]; L9'T/Y281A, 1 mM PTX, saturating GABA, mean ± SD): 0.25 ± 0.07 (5)
- IPTX /IGABA-max (ratio of PTX-sensitive to maximal GABA-evoked current amplitude) ([6]; L9'T/P277A, 1 mM PTX, saturating GABA, mean ± SD): 0.45 ± 0.03 (3)
- IPTX /IGABA-max (ratio of PTX-sensitive to maximal GABA-evoked current amplitude) ([7]; L9'T/T283A, 1 mM PTX, saturating GABA, mean ± SD): 0.11 ± 0.03 (5)
- IPTX /IGABA-max (ratio of PTX-sensitive to maximal GABA-evoked current amplitude) ([8]; L9'T/K278A, 1 mM PTX, saturating GABA, mean ± SD): 0.20 ± 0.06 (5)
- IPTX /IGABA-max (ratio of PTX-sensitive to maximal GABA-evoked current amplitude) ([9]; L9'T/V279A, 1 mM PTX, saturating GABA, mean ± SD): 0.17 ± 0.04 (4)
- IPTX /IGABA-max (ratio of PTX-sensitive to maximal GABA-evoked current amplitude) ([10]; L9'T/L276A, 1 mM PTX, saturating GABA, mean ± SD): 0.22 ± 0.09 (4)
- IPTX /IGABA-max (ratio of PTX-sensitive to maximal GABA-evoked current amplitude) ([11]; L9'T/V279W, 1 mM PTX, saturating GABA, mean ± SD): 0.16 ± 0.05 (2)
- IPTX /IGABA-max (ratio of PTX-sensitive to maximal GABA-evoked current amplitude) ([12]; L9'T/V279D, 1 mM PTX, saturating GABA, mean ± SD): 0.02 ± 0.005 (3)
